In publication PMC9820345, “Metal Complexes of a 5-Nitro-8-Hydroxyquinoline-Proline Hybrid with Enhanced Water Solubility Targeting Multidrug Resistant Cancer Cells” (International Journal of Molecular Sciences, 2022):
Read-outs that look alike come from different tables or passages of the source.

Tests used:
[1] = type: physicochemical; settings: for logK' (H2O/Cl−): I = 0.2 M KNO3, 25.0 °C
Method: Spectral changes in the UV-vis spectra (Figure 8c) reveal two transformation processes. […] As chloride ions can efficiently coordinate to these types of half-sandwich organometallic complexes, the water/chloride co-ligand exchange process was also studied by UV-vis spectrophotometry (at pH 7.4 or 6.0), and logK' (H2O/Cl^-) exchange constants were determined (Table 3) based on the spectral changes upon increasing the chloride concentration in the solution. For the RhCp* complex, a higher constant, namely stronger chloride ion affinity, was obtained. […] An Agilent Cary 8454 diode array spectrophotometer (Santa Clara, CA, USA) was used to obtain UV-vis spectra in the wavelength range 200-1000 nm, while spectra were recorded for the Fe(II)-containing samples using an Avantes (Avantes B.V., Apeldoorn, The Nederlands) AvaSpec-ULS2048CL-EVO spectrometer with an AvaLight-DHc light source and […] transmission dip probe. The titrations for the Fe(II)-containing samples were performed in a laboratory glove box (GP(Campus), Jacomex) (O2 content ≤ 1 ppm). The path length (l) was 1 cm in most cases (the actual l is always indicated in the legends of the figures). […] Spectra were always background and baseline corrected. The computer program HypSpec was used to obtain stability constants. Hydrolysis constants of the Fe(III), Fe(II), RuCym, and RhCp* species were included in the speciation models (see Table S4 with the data taken from References).

[2] = Stability of the complexes in blood serum (UV-vis); type: in vitro ADME, human; settings: blood serum four-time diluted with PBS'; after 24 h
From the text: The stability of the RhCp* and RuCym complexes of HQNO2-L-Pro was also monitored in Roswell Park Memorial Institute (RPMI) medium used for the in vitro cell studies (in the case of Colo cells), and in blood serum using UV-vis and ^1H NMR spectroscopy. […] Despite these changes, the dissociation of the complexes is not likely as the liberation of the unbound ligand was not observed; thus, the complexes most probably form ternary complexes with the components of the serum or the medium. In order to further study the reactivity of these complexes with bioligands, their interaction with human serum albumin (HSA) and selected oligopeptides (also used as binding models of HSA) was assayed.
Stock and sample solutions were prepared using Milli-Q water. […] Their concentrations were determined by complexometry via the EDTA complexes. […] The concentration of the Fe(II) stock solution was determined by permanganometric titrations under acidic conditions. […] Residual citrate content of HSA was removed by repeated ultrafiltration of the protein stock solution, and its concentration was calculated from its UV absorption: λ280nm (HSA) = 36,850 M^−1 cm^−1 [51]. […]

HSA site II = target: T1, HSA site II (Homo sapiens, UniProt P02768); test: HSA dansylglycine (DG) site marker displacement by fluorometry (site II); type: binding; settings: 1 µM HSA, 1 µM DG, pH 7.4 (PBS')
T1 construct: purchased Sigma-Aldrich (Darmstadt, Germany) A8763
Method: Therefore, tryptophan (Trp-214) quenching and dansylglycine (DG) site marker displacement experiments were conducted by fluorometry to obtain information about the binding at sites I and II, respectively, using the same approach reported in our former paper. A representative spectral series is shown in Figure 9a for the Trp-214 quenching experiment, upon the addition of the RhCp*–HQNO2-L-Pro complex and the computed binding constants (logKQ’ and logKDG’) which can be found in Figure 9b, in addition to the corresponding data for the HQCl-L-Pro complexes.
A Fluoromax (Horiba Jobin Yvon, Longjumeau, France) spectrofluorometer was utilized for fluorescence measurements using a 1 cm × 1 cm quartz cuvette. Samples contained 1 µM HSA or DG and 1 µM HSA at pH 7.4 (PBS’), and the complex concentration was varied between 0 and 53 µM. The measurements were carried out on individual samples. Excitation wavelengths were 295 nm for Trp-214 quenching, and 335 nm for the DG displacement studies, respectively. The calculated conditional stability constants for HSA–complex species were obtained using the computer program HypSpec. Calculations always were based on data obtained from at least two independent measurements. Self-absorbance and inner filter effect had to be taken into account, and corrections were made as was described in our former works.

T1 sequence (P02768 25-609): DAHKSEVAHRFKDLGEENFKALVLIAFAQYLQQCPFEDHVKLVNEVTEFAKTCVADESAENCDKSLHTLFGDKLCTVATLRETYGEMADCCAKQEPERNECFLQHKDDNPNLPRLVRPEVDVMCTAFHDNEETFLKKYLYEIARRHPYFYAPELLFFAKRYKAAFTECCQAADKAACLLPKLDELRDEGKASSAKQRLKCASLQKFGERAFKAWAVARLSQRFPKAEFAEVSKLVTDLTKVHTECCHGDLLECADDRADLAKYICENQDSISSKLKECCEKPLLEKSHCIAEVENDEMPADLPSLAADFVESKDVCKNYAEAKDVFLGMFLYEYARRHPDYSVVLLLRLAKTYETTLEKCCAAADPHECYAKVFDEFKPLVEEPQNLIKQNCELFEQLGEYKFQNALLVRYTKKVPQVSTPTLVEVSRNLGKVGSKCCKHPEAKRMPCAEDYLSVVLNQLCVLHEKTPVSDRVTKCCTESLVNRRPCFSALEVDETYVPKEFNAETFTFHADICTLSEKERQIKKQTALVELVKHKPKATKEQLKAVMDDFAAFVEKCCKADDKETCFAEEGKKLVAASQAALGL

SMILES | pKa (1) [1] | pKa (2) [1] | logK' (H2O/Cl−) ([1]; pH 6.0) | changes of the charge-transfer bands (400–500 nm) on incubation in serum [2] | logK' (H2O/Cl−) ([1]; pH 7.4) | DG marker displacement constant logKDG' (HSA site II) | Kd (HSA site II; read-out: DG marker displacement constant logKDG' (converted))
Cc1ccc(C(C)C)cc1.O=C(O)[C@@H]1CCC[NH+]1Cc1cc([N+](=O)[O-])c2ccc[n+]3c2c1[O][Ru-]3[Cl].[Cl-] [RuCym-HQNO2-L-Pro, [RuCym(HQNO2-L-Pro)Cl]Cl] | 8.55 ± 0.03 | 10.21 ± 0.03 | 1.47 ± 0.01 | minor changes |  |  | 
CC1=C(C)[C](C)([Rh]([Cl])[O]c2c(C[NH+]3CCC[C@H]3C(=O)O)cc([N+](=O)[O-])c3cccnc23)C(C)=C1C.[Cl-] [RhCp*-HQNO2-L-Pro, [RhCp*(HQNO2-L-Pro)Cl]Cl] | 9.33 ± 0.03 | 10.34 ± 0.03 |  | minor changes | 2.07 ± 0.03 | 5.6 | 
O=C(O)[C@@H]1CCCN1Cc1cc([N+](=O)[O-])c2cccnc2c1O [HQNO2-L-Pro, (2S)-1-((8-hydroxy-5-nitroquinolin-7-yl)methyl)pyrrolidin-1-ium-2-carboxylate] |  |  |  |  |  |  | 33.9 µM
